This note sets out measurements from patent publication US7413853B2, “Modulation of metabolism of steroids and xenobiotics” (The Salk Institute for Biological Studies, priority 2001, dated 2008).

The structures appear in SMILES notation.

The subject of series [1] is human CYP3A4 gene cellular promoter. As to conditions: hepatocytes. The source says:
(§1) The PCR-amplified sequences and target mutagenesis were confirmed by DNA sequencing.
(§2) All compounds were purchased from Sigma.

Series [2] relates to CYP3A11 gene. As to conditions: mouse, in vivo. The method, then:
The animals were allowed free access to food and water at all times. […] When necessary, mice were treated with a single intraperitoneal injection of DEX (50 mg/kg), PCN (40 mg/kg), or CTZ (50 mg/kg).
To examine the drug response of the endogenous liver CYP3A11 gene, animals were treated with single dose of compounds 24 h before sacrifice, and the CYP3A11 gene expression was evaluated by Northern blot analysis on liver total RNA. […] To detect specific transcripts, [^32P]-cDNA probes labeled by Random Primer Labeling Kit (Boringher) were hybridized to the membranes. The probe used to detect transgene contains both the SXR cDNA and the SV40 sequences. […] The filters were subsequently stripped and rehybridized with a murine glyceraldehyde-3-phosphate dehydrogenase (GAPDH) cDNA probe for RNA loading normalization.
Tissues were harvested 24 h later and subjected to Northern blot analysis. Membranes were probed with CYP3A11 cDNA probe, and were subsequently stripped and re-probed with GAPDH and transgene specific probes.

Series [3] deals with SXR. The experiment in a line: Activation of SXR in transfection-based assays. The method, then:
To characterize its response properties, a large variety of steroids, including intermediate and major products of known steroid biosynthetic pathways were tested.

The target in series [4] is T1, PXR (Mus musculus, UniProt O54915).
T1 sequence (O54915 1-431): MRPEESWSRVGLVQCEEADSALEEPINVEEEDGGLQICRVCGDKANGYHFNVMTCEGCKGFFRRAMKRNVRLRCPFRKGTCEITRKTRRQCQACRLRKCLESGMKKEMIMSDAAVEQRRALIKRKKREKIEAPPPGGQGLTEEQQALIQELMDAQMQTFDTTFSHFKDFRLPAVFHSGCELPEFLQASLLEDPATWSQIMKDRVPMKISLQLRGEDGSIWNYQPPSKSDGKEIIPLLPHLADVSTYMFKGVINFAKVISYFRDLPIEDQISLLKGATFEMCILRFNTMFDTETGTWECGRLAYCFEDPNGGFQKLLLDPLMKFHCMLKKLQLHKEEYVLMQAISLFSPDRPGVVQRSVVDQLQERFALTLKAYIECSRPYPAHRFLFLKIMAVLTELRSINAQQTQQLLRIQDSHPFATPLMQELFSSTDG
As to conditions: tk-UGT1A6/DR-3-Luc, CV-1 cells. An excerpt:
(§3) The reporter gene comprises a thymadine kinase (TK) linked to UGT1A6/DR-3 linked to a luciferace (LUC).
(§4) In an exemplary assay, a luciferase reporter gene containing the UGT1A6/DR-3 upstream of a minimal thymidine kinase (tk) promoter was constructed and transfected into monkey kidney CV-1 cells together with expression vectors for SXR, PXR, or CAR.
(§5) In FIG. 2, the tk-UGT1A6/DR3-Luc construct comprises a UGT inverted or direct repeat and/or a nuclear receptor binding site such that activation of the response element results in transcription of UGT. […] The response element can also comprise an inverse repeat of a suitable half site separated by a 6 nucleotide spacer, or an inverse repeat of a variant thereof, separated by a 6 nucleotide spacer.

In series [5] the test system is rat CYP3A23 gene cellular promoter. The method, then: as §1, §2
The above notion would predict: (1) The SXR/PXR response element is essential for the activation of CYP3A genes; and (2) The response elements of SXR and PXR are interchangeable. Therefore, mutagenesis analysis was performed on the promoter of the rat CYP3A23 gene to examine these predictions.

Series [6] has as its target T1, PXR. The experiment in a line: Activation of mouse receptor PXR by the panel of compounds.
For series [7], the target named is T2, SXR (Homo sapiens, UniProt O75469).
T2 sequence (O75469 1-434): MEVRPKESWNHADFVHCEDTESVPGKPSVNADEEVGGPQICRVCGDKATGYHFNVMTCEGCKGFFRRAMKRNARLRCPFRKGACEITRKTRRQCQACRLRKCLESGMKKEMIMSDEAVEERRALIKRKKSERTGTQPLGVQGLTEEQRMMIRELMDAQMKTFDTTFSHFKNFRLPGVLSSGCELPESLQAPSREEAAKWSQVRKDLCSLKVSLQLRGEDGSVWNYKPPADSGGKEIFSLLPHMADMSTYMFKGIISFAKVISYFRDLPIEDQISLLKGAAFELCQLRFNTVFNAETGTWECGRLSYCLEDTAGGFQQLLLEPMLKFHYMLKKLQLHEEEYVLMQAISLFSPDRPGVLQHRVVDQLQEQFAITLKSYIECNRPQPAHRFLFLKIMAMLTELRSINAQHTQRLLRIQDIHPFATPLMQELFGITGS
Text: as §3, §4, §5

Turning to `CC(=O)[C@H]1[C@H](C#N)C[C@H]2[C@@H]3CC=C4C[C@@H](O)CC[C@]4(C)[C@H]3CC[C@@]21C` [PCN, pregnenolone-16-carbonitrile], in series [1], the “activation of CYP3A4 cellular promoter reporter” value is listed as “can be activated”. Besides, in series [2], the “induction of liver CYP3A11 expression” value is given as “equally efficacious”. Also, in series [3], the “activation of SXR by compounds known to induce CYP3A4” value was “weak activator”. For the same compound, in series [3] (series of transfections), the “SXR activation of DR-3, DR-4 and DR-5 elements” value is “among the best activators”. Moreover, in series [3] (transfection-based assays, steroids tested), the “activation of SXR” value is given as “activated”. For the same compound, the “PXR-mediated UGT activation” value in series [4] is listed as “activation was seen”. For the same compound, in series [5], the “PXR and/or SXR-mediated activation of mutated CYP3A23 promoter” value is given as “abolished”; the “activation of CYP3A23 cellular promoter reporter” value is “most potent and efficacious tested activators”; the “inducibility of CYP3A23 promoter with DR-3 replaced by IR-6” value was “successfully rescue the inducibility”; the “induction of CYP3A23 cellular promoter reporter” value is “remained unchanged”. For the same compound, the “activation of PXR” value in series [6] is recorded as “preferentially activated”.

For the compound `Clc1ccccc1C(c1ccccc1)(c1ccccc1)n1ccnc1` [CTZ, clotrimazole], the “activation of the UGT reporter by SXR” value in series [7] is given as “Significant activation”. In series [4], the “PXR-mediated UGT activation” value is “activation was seen”. For the same compound, in series [5], the “PXR and/or SXR-mediated activation of mutated CYP3A23 promoter” value is “abolished”, the “inducibility of CYP3A23 promoter with DR-3 replaced by IR-6” value was “successfully rescue the inducibility” and the “induction of CYP3A23 cellular promoter reporter” value is recorded as “significant induction”.
